Laboratory results published in PubChem BioAssay AID2060485 (Molecular Pharmacology Branch, DTP, NCI, 2025).

Tested on: A375 multi-cell spheroids with HUVEC/MSC, viability
Experiment: Anticancer human tumor A375 cell line growth inhibition [GQUAD];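 also: spheroids exposed to compounds for seven days before readout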
Settings: for IC50: curve of first compound; for viability, T/C: stronger effect = lower value
Text: DNA G-quadruplex Stabilizer Agents in Combinations in Complex Spheroids
A high-throughput screen of multi-cell type tumor spheroids was designed to identify active combinations of DNA G-quadruplex stabilizer agents and targeted small molecules. Complex spheroids include a stromal component modeled by human endothelial cells (HUVEC) and fibroblasts modeled by human mesenchymal stem cells (MSCs). The concentration ranges selected for each drug and investigational agent were based upon clinically achievable concentrations if the clinical Cmax of the agent was known.
Compounds. The drugs and investigational agents: pidnarulex (CX-5461; NSC782164), APTO-253 (NSC789042), BRACO-19 (NSC847499), peposertib (NSC802822), ceralasertib (NSC780249), elimusertib (NSC800525), camonsertib (NSC841442), AZD-1390 (NSC803789), olaparib (NSC753686), talazoparib (NSC767125), ART-558 (NSC835418), sotorasib (NSC818433), MRTX-1133 (NSC836407), SN-38 (NSC673596), topotecan (NSC609699), etoposide (NSC141540), doxorubicin (NSC123127), gemcitabine (NSC613327), 5-fluorouracil (NSC19893), paclitaxel (NSC125973), vemurafenib (NSC761431), panobinostat (NSC761190), R-306465 (JNJ-16241199; NSC773264), adavosertib (NSC754352), TP-3654 (NSC805149), carboplatin (NSC241240), KSQ-4279 (NSC840948), and staurosporine (NSC755774) were obtained from the National Cancer Institute (NCI) Developmental Therapeutics Program Chemical Repository (34). The FDA-approved anticancer drug set is available from the NCI Developmental Therapeutics Program. […] The stock solutions were prepared in dimethyl sulfoxide (DMSO, Sigma-Aldrich, St. Louis, MO, cat. D2650) at 800-fold the tested concentration and stored at -70 degrees C prior to their use. All drugs and investigational agents were tested over a range starting from a high concentration at or near the clinical Cmax and decreasing in half-log increments. If the clinical Cmax for an agent had not been determined, the highest concentration tested was 10 microM.
2.3 Cell Culture. All cells were maintained in an incubator at 37 degrees C and 5% CO2 with 95% humidity. The PDC lines were cultured according to standard operating procedures established by the NCI PDMR. All PDCs were thawed and cultured in Matrigel-coated flasks prepared with a working solution of 1X Ham's F-12 nutrient mix, without supplementation (Invitrogen, cat. 11765054), 100 U/mL penicillin-streptomycin (Invitrogen, cat. 15140122), and 2.5% Matrigel (Corning Inc., cat. 354248) for the first three passages. The 857933-349-R-J2-PDC line was cultured in 6C/Colon 1B media, which includes advanced DMEM/F-12 (Thermo Fisher Scientific, cat. 12634028), 10 mM HEPES (Thermo Fisher Scientific, cat. 15630080), 1X GlutaMAX supplement (Thermo Fisher Scientific, cat. 35050061), 0.1 mg/mL primocin (InvivoGen, cat. ant-pm-2), 10% defined fetal bovine serum, heat inactivated (HyClone Laboratories Inc., cat. SH30070.03HI), 50% L-WRN conditioned media (ATCC, cat. CRL-3276), 1.25 mM N-Acetyl-L-cysteine (Sigma-Aldrich, cat. A9165), 10 mM nicotinamide (Sigma-Aldrich, cat. N0636), 1X B-27 supplement (Thermo Fisher Scientific, cat. 17504044), 1X N-2 supplement (Thermo Fisher Scientific, cat. 17502048), 10 microM Y-27632 dihydrochloride (Tocris Bioscience, cat. 1254), and 50 ng/mL human EGF recombinant protein (Thermo Fisher Scientific, cat. PHG0311). The 485176-168-R4-J1-PDC line was cultured in Panc media, which includes all 6C/Colon 1B media components plus 100 ng/mL human FGF-10 (Thermo Fisher Scientific, cat. 100-26), 500 nM SB-431542 (Selleckchem, cat. S1067), and gastrin (Tocris, cat. 3006).
[…]

[1] = second compound 0.0316 µM, first compound 0.0316 µM
[2] = second compound 0.0316 µM, first compound 0.1 µM
[3] = second compound 0.0316 µM, first compound 0.316 µM
[4] = second compound 0.0316 µM, first compound 1 µM
[5] = second compound 0.0316 µM, first compound 3.16 µM
[6] = second compound 0.0316 µM, first compound 10 µM
[7] = second compound 0.1 µM, first compound 0.0316 µM
[8] = second compound 0.1 µM, first compound 0.1 µM
[9] = second compound 0.1 µM, first compound 0.316 µM
[10] = second compound 0.1 µM, first compound 1 µM
[11] = second compound 0.1 µM, first compound 3.16 µM
[12] = second compound 0.1 µM, first compound 10 µM
[13] = second compound 0.316 µM, first compound 0.0316 µM
[14] = second compound 0.316 µM, first compound 0.1 µM
[15] = second compound 0.316 µM, first compound 0.316 µM
[16] = second compound 0.316 µM, first compound 1 µM
[17] = second compound 0.316 µM, first compound 3.16 µM
[18] = second compound 0.316 µM, first compound 10 µM
[19] = second compound 1 µM, first compound 0.0316 µM
[20] = second compound 1 µM, first compound 0.1 µM
[21] = second compound 1 µM, first compound 0.316 µM
[22] = second compound 1 µM, first compound 1 µM
[23] = second compound 1 µM, first compound 3.16 µM
[24] = second compound 1 µM, first compound 10 µM
[25] = second compound 3.16 µM, first compound 0.0316 µM
[26] = second compound 3.16 µM, first compound 0.1 µM
[27] = second compound 3.16 µM, first compound 0.316 µM
[28] = second compound 3.16 µM, first compound 1 µM
[29] = second compound 3.16 µM, first compound 3.16 µM
[30] = second compound 3.16 µM, first compound 10 µM
[31] = second compound 10 µM, first compound 0.0316 µM
[32] = second compound 10 µM, first compound 0.1 µM
[33] = second compound 10 µM, first compound 0.316 µM
[34] = second compound 10 µM, first compound 1 µM
[35] = second compound 10 µM, first compound 3.16 µM
[36] = second compound 10 µM, first compound 10 µM

Structure (SMILES): COc1ncnc(C2CC2)c1-c1ncc2cnn(Cc3ccc(-c4nc(C(F)(F)F)cn4C(C)C)cc3)c2n1 + Cc1cnc(CNC(=O)c2c(=O)c3ccc(N4CCCN(C)CC4)nc3n3c2sc2ccccc23)cn1
- IC50 (second compound 0.0316 µM): > 10000 nM
- IC50 (second compound 0.1 µM): > 10000 nM
- IC50 (second compound 0.316 µM): < 31.6 nM
- IC50 (second compound 1 µM): < 31.6 nM
- IC50 (second compound 3.16 µM): < 31.6 nM
- IC50 (second compound 10 µM): < 31.6 nM
- viability, T/C [1]: 101%
- viability, T/C [2]: 110%
- viability, T/C [3]: 102%
- viability, T/C [4]: 103%
- viability, T/C [5]: 104%
- viability, T/C [6]: 111%
- viability, T/C [7]: 69.3%
- viability, T/C [8]: 73.5%
- viability, T/C [9]: 57.3%
- viability, T/C [10]: 61.4%
- viability, T/C [11]: 70.3%
- viability, T/C [12]: 61.2%
- viability, T/C [13]: 49.3%
- viability, T/C [14]: 43.6%
- viability, T/C [15]: 47.1%
- viability, T/C [16]: 49%
- viability, T/C [17]: 46.2%
- viability, T/C [18]: 47.7%
- viability, T/C [19]: 36.2%
- viability, T/C [20]: 35%
- viability, T/C [21]: 34.5%
- viability, T/C [22]: 38.5%
- viability, T/C [23]: 33.5%
- viability, T/C [24]: 33.5%
- viability, T/C [25]: 29.6%
- viability, T/C [26]: 37.2%
- viability, T/C [27]: 30.9%
- viability, T/C [28]: 33.5%
- viability, T/C [29]: 31.7%
- viability, T/C [30]: 33.9%
- viability, T/C [31]: 30%
- viability, T/C [32]: 26%
- viability, T/C [33]: 27.6%
- viability, T/C [34]: 26.4%
- viability, T/C [35]: 32.7%
- viability, T/C [36]: 31.9%

Structure (SMILES): O=C(c1cc(Cc2n[nH]c(=O)c3ccccc23)ccc1F)N1CCN(C(=O)C2CC2)CC1 + Cc1cnc(CNC(=O)c2c(=O)c3ccc(N4CCCN(C)CC4)nc3n3c2sc2ccccc23)cn1
- IC50 (second compound 0.0316 µM): > 10000 nM
- IC50 (second compound 0.1 µM): > 10000 nM
- IC50 (second compound 0.316 µM): 760 nM
- IC50 (second compound 1 µM): < 31.6 nM
- IC50 (second compound 3.16 µM): < 31.6 nM
- IC50 (second compound 10 µM): < 31.6 nM
- viability, T/C [1]: 108%
- viability, T/C [2]: 98.9%
- viability, T/C [3]: 101%
- viability, T/C [4]: 95.5%
- viability, T/C [5]: 85.4%
- viability, T/C [6]: 68.1%
- viability, T/C [7]: 80.9%
- viability, T/C [8]: 71.1%
- viability, T/C [9]: 65.8%
- viability, T/C [10]: 65.3%
- viability, T/C [11]: 61.8%
- viability, T/C [12]: 51.8%
- viability, T/C [13]: 49.5%
- viability, T/C [14]: 57.8%
- viability, T/C [15]: 58.6%
- viability, T/C [16]: 48.3%
- viability, T/C [17]: 45%
- viability, T/C [18]: 42%
- viability, T/C [19]: 40.6%
- viability, T/C [20]: 40.6%
- viability, T/C [21]: 43.6%
- viability, T/C [22]: 35.7%
- viability, T/C [23]: 38%
- viability, T/C [24]: 34.7%
- viability, T/C [25]: 32%
- viability, T/C [26]: 36.7%
- viability, T/C [27]: 43%
- viability, T/C [28]: 31.4%
- viability, T/C [29]: 30.8%
- viability, T/C [30]: 32.7%
- viability, T/C [31]: 26.9%
- viability, T/C [32]: 30.4%
- viability, T/C [33]: 30.5%
- viability, T/C [34]: 29.2%
- viability, T/C [35]: 30.2%
- viability, T/C [36]: 24.8%
